Results as given in patent US20230382869A1, “Phenyl-3,4-dihydroisoquinolin-2(1h)-yl-ethan-1-one derivatives as dopamine d1receptor positive allosteric modulators” (Eli Lilly and Company, priority 2020, published 2023).
Read-outs that look alike come from different tables or passages of the source.

Columns and labels:
[1] = Fraction unbound in vitro (equilibrium dialysis); format: in vitro ADME
Method: Example 7, 2-(2-chloro-6-fluoro-phenyl)-1-[(1S,3R)-6-fluoro-3-(hydroxymethyl)-5-(3-hydroxy-3-methyl-butyl)-1-methyl-3,4-dihydro-1H-isoquinolin-2-yl]ethenone, was orally dosed to male mouse from 3 mg/kg to 60 mg/kg in fed condition, and the plasma and brain concentration was determined 1 hr post-dose. The fraction unbound of the compound was determined in vitro as described previously (Zamek-Gliszczynski M J, et al., Validation of 96-well equilibrium dialysis with non-radiolabeled drug for definitive measurement of protein binding and application to clinical development of highly-bound drugs, J. Pharm. Sci. (2011) 100: 2498-2507). The ratio (Kpuu) of unbound brain concentration (Cu, brain) vs. unbound plasma concertation (Cu, plasma) was determined as described previously (Raub T J, et al., Brain Exposure of Two Selective Dual CDK4 and CDK6 Inhibitors and the Antitumor Activity of CDK4 and CDK6 Inhibition in Combination with Temozolomide in an Intracranial Glioblastoma Xenograft. Drug Metab. Dispos. (2015) 43:1360-71). The data presented below in Table 3 for Example 7 are averages from 3 animals at each dose. “Con.” refers to concentration.

CYP3A = assay: Intrinsic clearance CLint,CYP3A,liver; format: in vitro ADME; settings: human

C[C@H]1c2ccc(F)c(CCC(C)(C)O)c2C[C@H](CO)N1C(=O)Cc1c(F)cccc1Cl [Example 7, 2-(2-chloro-6-fluoro-phenyl)-1-[(1S,3R)-6-fluoro-3-(hydroxymethyl)-5-(3-hydroxy-3-methyl-butyl)-1-methyl-3,4-dihydro-1H-isoquinolin-2-yl]ethanone]
fraction unbound ([1]; fraction unbound in brain, read-out: fu, brain): 0.0249 | fraction unbound ([1]; fraction unbound in plasma, read-out: fu, plasma): 0.0141 | microsomal CLint (CYP3A): 25.5 µL/min/mg
